“Also recorded” adds a separate entry of the source. Where two headings read alike, the source gives them in different places. Marks after values point to notes of the source that are not given here.
Legend:
human DDC [1] = biological target: T1, human DDC (Homo sapiens, UniProt P20711); assay: Assay of the inhibitory activity: spectrophotometric measurement of dopamine production by DDC; format: biochemical; conditions: for Ki′: mixed or noncompetitive inhibition; for Inhibition profile: type of inhibition from Lineweaver–Burk plots; for IC50: 0.1 mM L-Dopa, pH 7.4, 25°C, 9 concentrations in duplicate; for BE (binding efficiency): binding energy per unit of mass, from Ki and molecular weight in kDa
T1 construct: made in house
T1 sequence (P20711 1-480): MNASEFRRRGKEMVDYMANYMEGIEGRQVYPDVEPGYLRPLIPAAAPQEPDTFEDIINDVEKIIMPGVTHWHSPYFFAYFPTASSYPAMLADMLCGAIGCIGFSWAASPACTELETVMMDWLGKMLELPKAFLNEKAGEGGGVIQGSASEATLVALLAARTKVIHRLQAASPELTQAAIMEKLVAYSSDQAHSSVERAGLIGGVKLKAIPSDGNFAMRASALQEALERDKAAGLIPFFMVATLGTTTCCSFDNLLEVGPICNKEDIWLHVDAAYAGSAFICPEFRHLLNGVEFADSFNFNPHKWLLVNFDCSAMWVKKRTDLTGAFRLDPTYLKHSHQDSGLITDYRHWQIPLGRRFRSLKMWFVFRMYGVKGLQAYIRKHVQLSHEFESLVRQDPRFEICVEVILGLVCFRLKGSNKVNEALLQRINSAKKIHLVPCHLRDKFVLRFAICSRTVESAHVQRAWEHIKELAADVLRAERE
Description: DDC activity was determined by measuring the production of dopamine with a spectrophotometric assay outlined by Sherald et al. and modified by Charteris and John. The reaction was carried out in 0.1 M potassium phosphate buffer pH 7.4 at 25°C for 1 min and stopped by inactivation of the enzyme at 100°C for 90 sec. The inhibitory assay was performed by measuring the decarboxylase activity of DDC with 50 nM enzyme, 0.1 mM L-Dopa, and 10 µM PLP in the presence and in the absence of a fixed amount of each compound. Various amounts of dimethyl sulphoxyde (DMSO) were necessary to solubilize the compounds in 100 mM potassium phosphate buffer, pH 7.4. […] Compounds were evaluated at 9 concentrations, and each in duplicate. IC50 values were derived by nolinear regression analysis. The related inhibition type of the compounds on human DDC was identified from Lineweaver–Burk plots, and Ki and/or Ki′ values for the inhibitors tested were calculated by the software Origin 7.0.

human DDC [2] = biological target: T1, human DDC; assay: Enzyme-ligand equilibrium dissociation constant from visible CD signal changes of DDC; format: binding; conditions: change of 420 nm or 335 nm CD band, 100 mM potassium phosphate pH 7.4
Description: The equilibrium dissociation constant for each tested compound from DDC was determined by monitoring the decrease in the 420 nm CD signal of DDC (7 µM) in the presence of various ligand concentrations in 100 mM potassium phosphate buffer, pH 7.4. In any case, the maximun DMSO concentration in the mixture was kept lower than 1% (v/v). The KD values were obtained from the fitting of the data to the equation [drawing 3] where [E]t and [L]t represent the total concentrations of DDC dimer and ligand, respectively, Y refers to the visible CD signal change at 420 nm at the ligand concentration [L], and Ymax refers to the CD signal when all enzyme molecules are complexed with the ligand. CD measurements were performed with a Jasco J-710 spectropolarimeter using quartz cuvettes with 1 cm path length.

[3] = 50 nM enzyme, L-Dopa, 10 µM PLP, 0.1 M potassium phosphate pH 7.4, 25°C, from Lineweaver–Burk plots, read-out: Ki
[4] = 0.1 M potassium phosphate pH 7.4, 25°C, from Lineweaver–Burk plots
[5] = 50 nM enzyme, 10 µM PLP, read-out: IC50
[6] = at a concentration in which solubility of the compound was maximum
[7] = Ki, competitive inhibition, Table 4, third screening

| Ki (human DDC [1]; [3]) [µM] | Inhibition profile (human DDC [1]) | IC50 (human DDC [1]; [5]) [µM] | BE (binding efficiency) (human DDC [1]) | Kd (human DDC [2]) [µM] | SMILES | other results |
| --- | --- | --- | --- | --- | --- | --- |
| – | noncompetitive inhibitors | 29 ± 2 | – | – | Oc1ccc(/C=N/n2c(S)nnc2-c2ccc(Cl)cc2Cl)c(O)c1 [Compound 35] | Ki′ (human DDC [1]; [4]): 127±16^b µM |
| 10.4 ± 3.3 | competitive inhibitors | 11 ± 0.8 | 15.8 | 7.1 ± 0.9 | Oc1ccc(/C=N/n2c(S)nnc2-c2ccc(F)cc2)cc1O [Compound 34] | – |
| – | – | 6.2 ± 0.3 | 16,7 | 1.5 ± 0.3 | COc1cccc(-c2nnc(S)n2/N=C/c2ccc(O)c(O)c2)c1 [Compound 45] | Ki (human DDC [1]; [7]): 2 ± 0.1 µM |
| – | – | 76 ± 5.8 | 22,6 | 24.5 ± 4.4 | Oc1ccc(/C=N/n2cnnc2)cc1O [Compound 38] | Ki (human DDC [1]; [7]): 24.5 ± 1.4 µM |
| 1.8 ± 1.1 | competitive inhibitors | 2.4 ± 0.3 | 18.4 | 1.5 ± 0.2 | Oc1ccc(/C=N/n2c(S)nnc2-c2ccccc2)cc1O [Compound 37] | – |
| – | – | > 200 | – | – | COc1ccccc1-c1nnc(S)n1/N=C/c1ccc(O)c(O)c1 [Compound 47] | Inhibition of DDC activity (human DDC [1]; at 200 µM (the concentration of its maximum solubility)): does not inhibit DDC activity |
| – | – | 30.1 ± 2.1 | 15,4 | 6.1 ± 0.5 | Cc1ccccc1-c1nnc(S)n1/N=C/c1ccc(O)c(O)c1 [Compound 41] | Ki (human DDC [1]; [7]): 9.8 ± 0.5 µM |
| – | – | 5.2 ± 0.4 | 17,5 | 2.7 ± 0.5 | Cc1ccc(-c2nnc(S)n2/N=C/c2ccc(O)c(O)c2)cc1 [Compound 42] | Ki (human DDC [1]; [7]): 2 ± 0.2 µM |
| 4.5 ± 0.3 | mixed mode | – | – | – | Oc1c(Br)cc(Br)cc1/C=N/n1c(S)nnc1-c1ccc(Cl)cc1Cl [Compound 32] | Ki′ (human DDC [1]; [4]): 17 ± 0.2 µM |
| – | – | 3.5 ± 0.3 | 17,4 | – | Oc1ccc(/C=N/n2c(S)nnc2COc2ccccc2)cc1O [Compound 46] | Ki (human DDC [1]; competitive inhibition, Table 4, third screening, read-out: Ki): 1.1 ± 0.1 µM |
| – | – | 1.7 ± 0.2 | 18,4 | – | COc1ccc(-c2nnc(S)n2/N=C/c2ccc(O)c(O)c2)cc1 [Compound 44] | Ki (human DDC [1]; [7]): 0.5 ± 0.1 µM |
| – | – | 3.5 ± 0.2 | 19,4 | – | Oc1ccc(/C=N/n2c(S)nnc2-c2ccco2)cc1O [Compound 40] | Ki (human DDC [1]; [7]): 1.4 ± 0.1 µM |
| 16.5 ± 0.8 | mixed mode | – | – | – | Oc1ccccc1/C=N/n1c(S)nnc1-c1ccc(F)cc1 [Compound 33] | Ki′ (human DDC [1]; [4]): 325 ± 39 µM |
| – | – | 3.8 ± 0.6 | 17,5 | 2.8 ± 0.5 | Cc1cccc(-c2nnc(S)n2/N=C/c2ccc(O)c(O)c2)c1 [Compound 43] | Ki (human DDC [1]; [7]): 1.9 ± 0.1 µM |

Further lines, the compound ahead of its results:

| SMILES | Ki (human DDC [1]; [3]) [µM] | Inhibition profile (human DDC [1]) | IC50 (human DDC [1]; [5]) [µM] | BE (binding efficiency) (human DDC [1]) | Kd (human DDC [2]) [µM] | other results |
| --- | --- | --- | --- | --- | --- | --- |
| Oc1ccc(C=Nn2c(S)nnc2-c2ccccc2)c(O)c1 [Compound 27] | 24.8 ± 1.2 | mixed mode | – | – | – | Ki′ (human DDC [1]; [4]): 43.1 ± 1.9 µM |
| O=C1C(=Cc2ccc(O)c(O)c2)C(=O)c2ccccc21 [Compound 10] | 6.03 ± 0.55 | mixed inhibition | 12.8 ± 0.4 | – | – | Inhibition of DDC activity (human DDC [1]; [6]): ≥ 70%; Ki′ (human DDC [1]; [4]): 23.1 ± 1.1 µM |
| CC(C)C(NC(=O)Cc1n[nH]c(=O)c2ccccc12)c1nc2ccccc2[nH]1 (stereo not shown) [Compound 13] | – | – | – | – | – | Inhibition of DDC activity (human DDC [1]; [6]): do not inhibit DDC activity |
| CCOc1cc(-c2ccc(O)c(O)c2)cc(=O)c2c(C)oc(C)c12 [Compound 6] | – | – | – | – | – | Inhibition of DDC activity (human DDC [1]; [6]): do not inhibit DDC activity |
| Oc1cccc(/C=N/n2c(S)nnc2-c2ccccc2Cl)c1 [Compound 28] | 14 ± 1 | competitive inhibitors | 17 ± 1 | 14.7 | 21.1 ± 3.5 | – |
| Oc1ccc(C=Nn2c(S)nnc2-c2ccc(Cl)cc2)c(O)c1 [Compound 26] | – | noncompetitive inhibitors; also recorded: Nonconmpetitive | – | 12.1 | – | Ki′ (human DDC [1]; [4]): 65.2±−4.1^b µM |
| Oc1ccccc1/C=N/n1c(S)nnc1-c1ccccc1 [Compound 31] | 33.4 ± 5 | competitive inhibitors | 83 ± 12 | 15.1 | 31.7 ± 3.4 | – |
| Oc1ccc(/C=N/n2c(S)nnc2-c2ccccc2Cl)cc1O [Compound 25] | 3.7 ± 0.2 | competitive inhibitors | 15.2 ± 1.3 | 15.7 | 2.4 ± 0.1 | – |
| Nc1c(S(=O)(=O)c2ccccc2)c2nc3ccccc3nc2n1/N=C/c1ccc(O)c(O)c1 [Compound 12] | – | noncompetitive inhibition | – | – | – | Inhibition of DDC activity (human DDC [1]; [6]): ~55%; Ki′ (human DDC [1]; [4]): 19.4±1.4^b µM |
| O=C(Nc1ccccc1)c1ccccc1NS(=O)(=O)c1ccc2[nH]c(=O)[nH]c2c1 [Compound 17] | 4.4 ± 1.4 | competitive inhibitors | 16.8 ± 1.7 | 13.1 | 17.5 ± 5.1 | increase of affinity (human DDC [1]; compared with compound 5): about 13 fold |
| Oc1ccccc1/C=N/n1c(S)nnc1-c1ccccc1Cl [Compound 29] | 44.4 ± 2.3 | mixed mode | – | – | – | Ki′ (human DDC [1]; [4]): 208 ± 3 µM |
| Oc1ccc(/C=N/n2c(S)nnc2-c2ccccc2)c(O)c1O [Compound 22] | 15.1 ± 0.1 | mixed mode | 6.7 ± 0.9 | – | – | Ki′ (human DDC [1]; [4]): 46.7 ± 0.5 µM |
| Oc1ccc(/C=N/n2c(S)nnc2-c2ccc(Cl)cc2Cl)cc1O [Compound 30] | 12.2 ± 0.4 | competitive inhibitors | 29.8 ± 4.8 | 12.9 | 25.1 ± 3.5 | – |
| Cc1cccc(NC(=O)COC(=O)c2[nH]c(=O)[nH]c(=O)c2N)c1C [Compound 8] | – | – | – | – | – | Inhibition of DDC activity (human DDC [1]; [6]): do not inhibit DDC activity |
| O=C(O)c1ccccc1NS(=O)(=O)c1ccc2[nH]c(=O)[nH]c2c1 [Compound 16] | 59.8 ± 0.3 | competitive inhibitors | – | 12.7 | – | – |
| Oc1ccc(/C=N/n2c(S)nnc2-c2ccc(Cl)cc2)cc1O [Compound 21] | 2.3 ± 0.4 | competitive inhibitors | 6.3 ± 0.9 | 16.3 | 2.5 ± 0.7 | – |
| Oc1cccc(/C=N/n2c(S)nnc2-c2ccc(Cl)cc2Cl)c1 [Compound 20] | 36.8 ± 4.2 | competitive inhibitors | – | 12.1 | 28.2 ± 3.2 | – |
| Oc1ccc(/C=N/n2c(S)nnc2-c2ccc(Cl)cc2Cl)cc1 [Compound 18] | 63.2 ± 3.1 | competitive inhibitors | – | 11.5 | – | – |
| Oc1ccccc1/C=N/n1c(S)nnc1-c1ccc(Cl)cc1Cl [Compound 19] | – | – | – | – | – | DDC inhibitory activity in words (human DDC [1]; structure-activity discussion): poorly active |
| O=C1Nc2ccc(S(=O)(=O)N3CCCCC3)c3cccc1c23 [Compound 15] | – | – | – | – | – | Inhibition of DDC activity (human DDC [1]; [6]): do not inhibit DDC activity |
| Oc1cccc(/C=N/n2c(S)nnc2-c2ccccc2)c1O [Compound 23] | < 10 | competitive inhibitors | – | 16.8 | 4.7 ± 0.5 | IC50 (human DDC [1]; 50 nM enzyme, 10 µM PLP): 16.6 ± 0.3 µM; Ki (human DDC [1]; Ki, 50 nM enzyme, L-Dopa, 10 µM PLP, 0.1 M potassium phosphate pH 7.4, 25°C, from Lineweaver–Burk plots): 5.7 ± 0.1 µM |
| O=S(=O)(c1ccc2nnn(O)c2c1)N1CCCCC1 [Compound 2] | 390 ± 30 | competitive inhibition | 1500 ± 220 | 12.1 | 516 ± 126 | Inhibition of DDC activity (human DDC [1]; [6]): ≥ 70% |
| Oc1cccc(/C=N/n2c(S)nnc2-c2ccc(Cl)cc2Cl)c1O [Compound 11] | 10.7 ± 2.4 | competitive inhibition | 27.3 ± 1.6 | 13.0 | 16.1 ± 2.1 | Inhibition of DDC activity (human DDC [1]; [6]): ≥ 70% |
| Oc1cccc(/C=N/n2c(S)nnc2-c2ccc(Cl)cc2)c1 [Compound 24] | 120 ± 14 | competitive inhibitors | 77.1 ± 2.4 | 11.9 | – | – |
